Source: the NIST ThermoML archive (doi:10.1016/j.jct.2017.10.016)
Numbers after ± are expanded uncertainties.

Experiment: xn = mol fraction of the nth substance listed
Settings: Liquid, Buoyancy - hydrostatic balance with magnetic suspension - one sinker

Structure (SMILES): C=C(F)C(F)(F)F [2,3,3,3-tetrafluoro-1-propene] + CCC
- mass density (255.05 K, x1 = 0.217): 705.65 ± 3.9 kg/m3
- mass density (255.24 K, x1 = 0.322): 772.45 ± 3.9 kg/m3
- mass density (257.01 K, x1 = 0.422): 831.62 ± 3.8 kg/m3
- mass density (259.89 K, x1 = 0.322): 763.53 ± 3.8 kg/m3
- mass density (259.9 K, x1 = 0.533): 897.69 ± 3.9 kg/m3
- mass density (260.22 K, x1 = 0.217): 695.43 ± 3.9 kg/m3
- mass density (260.27 K, x1 = 0.422): 825.19 ± 3.8 kg/m3
- mass density (264.82 K, x1 = 0.322): 754.19 ± 3.8 kg/m3
- mass density (264.85 K, x1 = 0.533): 887.37 ± 3.9 kg/m3
- mass density (264.95 K, x1 = 0.217): 686.56 ± 3.9 kg/m3
- mass density (265.38 K, x1 = 0.422): 815.01 ± 3.8 kg/m3
- mass density (269.81 K, x1 = 0.533): 876.78 ± 3.8 kg/m3
- mass density (269.89 K, x1 = 0.217): 677.65 ± 3.8 kg/m3
- mass density (269.95 K, x1 = 0.322): 744.13 ± 3.8 kg/m3
- mass density (270.15 K, x1 = 0.422): 805.93 ± 3.8 kg/m3
- mass density (270.16 K, x1 = 0.113): 610.61 ± 3.9 kg/m3
- mass density (274.77 K, x1 = 0.533): 865.74 ± 3.7 kg/m3
- mass density (274.83 K, x1 = 0.217): 668.53 ± 3.8 kg/m3
- mass density (274.96 K, x1 = 0.113): 602.76 ± 3.8 kg/m3
- mass density (275.02 K, x1 = 0.625): 920.19 ± 3.6 kg/m3
- mass density (275.16 K, x1 = 0.422): 794.82 ± 3.8 kg/m3
- mass density (275.2 K, x1 = 0.322): 733.29 ± 3.7 kg/m3
- mass density (279.91 K, x1 = 0.217): 658.85 ± 3.7 kg/m3
- mass density (279.98 K, x1 = 0.422): 784.38 ± 3.7 kg/m3
- mass density (280.01 K, x1 = 0.113): 594.34 ± 3.7 kg/m3
- mass density (280.03 K, x1 = 0.322): 723.1 ± 3.7 kg/m3
- mass density (280.14 K, x1 = 0.625): 907.78 ± 3.6 kg/m3
- mass density (280.17 K, x1 = 0.533): 852.23 ± 3.7 kg/m3
- mass density (284.9 K, x1 = 0.322): 712.55 ± 3.7 kg/m3
- mass density (284.91 K, x1 = 0.217): 649.05 ± 3.6 kg/m3
- mass density (284.93 K, x1 = 0.113): 585.81 ± 3.7 kg/m3
- mass density (284.95 K, x1 = 0.533): 840.56 ± 3.6 kg/m3
- mass density (284.97 K, x1 = 0.422): 774.16 ± 3.7 kg/m3
- mass density (285.18 K, x1 = 0.625): 895.02 ± 3.6 kg/m3
- mass density (289.94 K, x1 = 0.533): 828.05 ± 3.6 kg/m3
- mass density (289.97 K, x1 = 0.422): 762.51 ± 3.6 kg/m3
- mass density (290 K, x1 = 0.533): 827.87 ± 3.6 kg/m3
- mass density (290.02 K, x1 = 0.113): 576.78 ± 3.6 kg/m3
- mass density (290.02 K, x1 = 0.217): 638.62 ± 3.6 kg/m3
- mass density (290.08 K, x1 = 0.322): 700.83 ± 3.6 kg/m3
- mass density (290.11 K, x1 = 0.625): 882 ± 3.6 kg/m3
- mass density (294.96 K, x1 = 0.322): 689.46 ± 3.6 kg/m3
- mass density (294.96 K, x1 = 0.422): 750.87 ± 3.6 kg/m3
- mass density (294.97 K, x1 = 0.533): 815.76 ± 3.5 kg/m3
- mass density (295 K, x1 = 0.113): 567.56 ± 3.5 kg/m3
- mass density (295.22 K, x1 = 0.625): 868.11 ± 3.5 kg/m3
- mass density (299.04 K, x1 = 0.422): 742.17 ± 3.4 kg/m3
- mass density (299.86 K, x1 = 0.113): 558.16 ± 3.5 kg/m3
- mass density (299.91 K, x1 = 0.533): 803.63 ± 3.4 kg/m3
- mass density (300.13 K, x1 = 0.625): 854.48 ± 3.4 kg/m3
